The values below come from ChEMBL document CHEMBL4665784, “Discovery of an Inhibitor for the TREK-1 Channel Targeting an Intermediate Transition State of Channel Gating” (J Med Chem, 2020).

Active and inactive are the calls of the source. No cut-off for these calls is given here.

Common to all, as to assay type: cell-based
In test [1] the target is T1, Potassium channel subfamily K member 2 (Homo sapiens) (UniProt O95069).
T1 sequence (whole entry): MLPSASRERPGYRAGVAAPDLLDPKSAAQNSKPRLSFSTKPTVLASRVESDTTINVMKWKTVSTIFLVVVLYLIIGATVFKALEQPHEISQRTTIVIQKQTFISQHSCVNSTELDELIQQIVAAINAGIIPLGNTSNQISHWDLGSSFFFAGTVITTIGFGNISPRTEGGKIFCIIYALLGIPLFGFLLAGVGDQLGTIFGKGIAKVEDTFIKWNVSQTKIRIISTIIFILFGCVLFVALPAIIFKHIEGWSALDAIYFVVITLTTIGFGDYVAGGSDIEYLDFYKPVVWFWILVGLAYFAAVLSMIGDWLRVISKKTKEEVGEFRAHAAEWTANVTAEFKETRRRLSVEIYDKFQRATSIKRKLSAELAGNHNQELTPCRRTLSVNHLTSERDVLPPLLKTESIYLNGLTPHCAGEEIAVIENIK
As to the kind of experiment: Inhibition of human TREK1 R207A mutant at intermediate transition state expressed in CHO cells by whole-cell patch-clamp electrophysiological method.

The target of test [2] is T1, Potassium channel subfamily K member 2 (Homo sapiens). The experiment in a line: (§1) Inhibition of human TREK1 at intermediate transition state expressed in CHO cells by whole-cell patch-clamp electrophysiological method. On the technique in general: In patch-clamp work, channel activity is measured electrically.
Test [3] shares this target. As to the kind of experiment: Inhibition of human TREK1 D294A mutant at intermediate transition state expressed in CHO cells by whole-cell patch-clamp electrophysiological method.
Test [4] shares this target. The experiment in a line: Inhibition of human TREK1 S290A mutant at intermediate transition state expressed in CHO cells by whole-cell patch-clamp electrophysiological method.
Test [5] has the same target. As to the kind of experiment: Inhibition of human TREK1 T211A mutant at intermediate transition state expressed in CHO cells by whole-cell patch-clamp electrophysiological method.
Test [6] concerns the target T2, Potassium channel subfamily K member 2 (Homo sapiens, UniProt O95069).
T2 sequence (O95069 whole entry): T1 sequence (whole entry)
Described as §1.

In test [7] the target is T3, Potassium channel subfamily K member 10 (Homo sapiens) (UniProt P57789).
T3 sequence (whole entry): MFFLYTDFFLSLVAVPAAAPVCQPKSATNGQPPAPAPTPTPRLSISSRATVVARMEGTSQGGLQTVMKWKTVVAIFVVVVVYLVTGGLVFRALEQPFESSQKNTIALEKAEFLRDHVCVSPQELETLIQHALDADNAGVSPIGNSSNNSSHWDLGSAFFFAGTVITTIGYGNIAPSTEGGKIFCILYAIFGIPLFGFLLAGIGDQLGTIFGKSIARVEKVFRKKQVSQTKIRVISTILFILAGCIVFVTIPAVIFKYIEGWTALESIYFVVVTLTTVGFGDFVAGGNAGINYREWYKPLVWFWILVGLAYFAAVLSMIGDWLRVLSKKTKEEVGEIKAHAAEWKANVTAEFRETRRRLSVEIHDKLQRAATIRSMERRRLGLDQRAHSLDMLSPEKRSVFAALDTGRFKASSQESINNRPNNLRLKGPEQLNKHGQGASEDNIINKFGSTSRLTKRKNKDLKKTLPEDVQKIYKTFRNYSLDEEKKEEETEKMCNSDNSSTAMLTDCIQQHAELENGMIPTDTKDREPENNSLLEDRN
As to the kind of experiment: Inhibition of human TREK2 at intermediate transition state expressed in CHO cells by whole-cell patch-clamp electrophysiological method.

In test [8] the target is T1, Potassium channel subfamily K member 2 (Homo sapiens). The experiment in a line: Inhibition of human TREK1 W295A mutant at intermediate transition state expressed in CHO cells by whole-cell patch-clamp electrophysiological method.
Test [9] has the same target. As to the kind of experiment: Inhibition of human TREK1 V288A mutant at intermediate transition state expressed in CHO cells by whole-cell patch-clamp electrophysiological method.
For test [10] the target is unchanged. As to the kind of experiment: Inhibition of human TREK1 M291A mutant at intermediate transition state expressed in CHO cells by whole-cell patch-clamp electrophysiological method.
Test [11] has the same target. As to the kind of experiment: Inhibition of human TREK1 at intermediate transition state expressed in CHO cells assessed as decrease in probability of TREK1 channel being in open state by single-channel recordings based by inside-out patch method.
The target is the same in test [12]. As to the kind of experiment: Effect on channel conductance of human TREK1 expressed in CHO cells by single-channel recordings based by inside-out patch method.
The target is the same in test [13]. As to the kind of experiment: Inhibition of human TREK1 in open state expressed in CHO cells in presence of 10 uM TREK1 activator arachidonic acid by whole-cell patch-clamp electrophysiological method.
The target in test [14] is T4, Potassium channel subfamily K member 4 (Homo sapiens) (UniProt Q9NYG8).
T4 sequence (whole entry): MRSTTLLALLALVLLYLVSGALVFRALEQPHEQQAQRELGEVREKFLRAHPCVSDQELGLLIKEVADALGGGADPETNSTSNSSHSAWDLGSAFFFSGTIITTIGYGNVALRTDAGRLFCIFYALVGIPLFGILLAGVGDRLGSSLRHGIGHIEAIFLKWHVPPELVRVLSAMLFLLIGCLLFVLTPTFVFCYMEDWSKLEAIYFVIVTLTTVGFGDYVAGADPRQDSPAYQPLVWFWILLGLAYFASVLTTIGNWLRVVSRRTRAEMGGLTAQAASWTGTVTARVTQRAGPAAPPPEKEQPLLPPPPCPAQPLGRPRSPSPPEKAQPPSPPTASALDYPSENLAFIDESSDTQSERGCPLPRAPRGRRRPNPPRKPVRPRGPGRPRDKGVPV
The experiment in a line: Inhibition of human TRAAK at intermediate transition state expressed in CHO cells by whole-cell patch-clamp electrophysiological method.

As for `CNCCC(Oc1ccc(C(F)(F)F)cc1)c1ccccc1` (stereo unspecified), the inhibition entry in test [1] is “inactive”.

In the case of `O=C(CSc1ccc2cc(F)ccc2n1)NNC(=O)c1ccc(Cl)cc1`, the inhibition entry in test [2] and in test [4] was “Active” in each case. In addition, the inhibition result in test [3] is “inactive”.

Take `COc1ccc2nc(SCC(=O)NNC(=O)c3ccc(Cl)cc3)ccc2c1`: the inhibition entry in test [2] and in [3] was “Active” throughout. In test [4], the inhibition entry is “inactive”.

For the compound `O=C(CSc1ccc2ccccc2n1)NNC(=O)c1ccc(Cl)cc1`, the inhibition entry in [5], in [8], in test [10], in test [3], in test [13] and in test [14] was “inactive” throughout. The inhibition result in [2] was “Dose-dependent effect”. In test [6], the IC50 (usually the concentration that inhibits the measured activity by half) worked out at 2990 nM. Also, the inhibition entry in test [7], in test [9], in test [11], in test [1] and in test [4] was “Active” in each case. Further, in test [12], the outcome was inactive.
